Laboratory results from patent US6476074B1, “Method and composition for treatment of erectile dysfunction” (Synphora AB, priority 1997, dated 2002).

Assays:
anaesthetized rats = assay: Reduction of blood pressure in anaesthetized rats on intravenous infusion; format: in vivo, rat; conditions: n=3, Mean ± SEM
Text: The vasodilatory effect of the prostaglandin analogues was also studied in the rat by registering the blood pressure reducing effect. This is a relevant […] model for showing general vasodilatory effect of importance for inducing erection since vasodilation in penis is needed for achieving erection. Rats were anaesthetized with a mixture of ketarnine and xylazin and the prostaglandin analogues were infused intravenously. The blood pressure was continuously registered in a femoral artery. Each analogue was infused in 3 escalating doses in the same animal. […] In all experiments the blood pressure reduction was transient and the blood pressure increased immediately after termination of the infusion. The analogues were used both as esters and acids for the experiments.

cat eyes [1] = assay: Irritant effect in cat eyes (behavioural model, eyelid closure); format: in vivo; conditions: for Maximum irritative effect: scale 0-3, Mean ± SEM (n = 3-6); for irritant effect (in words): cat eye, topical single dose
Procedure: The irritant effect of the prostaglandin analogues was tested using a behavioural model in cats. In this model the irritant effect on the eye is studied by registering the degree of eyelid closure and the behaviour of the animals. Compounds that cause discomfort and pain in the eye cause the animals to close their eyes. The analogues were applied as carboxylic acid esters, to enhance bioavailability, topically on the eye as a single dose at different dose levels. The animals were then followed for several hours at regular intervals. Each compound and dose was tested on a group of 3-6 cats. At least 3 days elapsed between two consecutive tests on the same animals. An arbitrary scale from 0 (absence of irritation) to 3 (marked irritation), with half steps was used.

[2] = test system: human corpus cavernosum tissue; assay: Relaxation of isolated human corpus cavernosum tissue precontracted with norepinephrine; format: cell-based; conditions: for Reduction in tension (%): precontracted with 10^−6 M norepinephrine, compared to carbachol (10^−6 M), Mean ± SEM; for Reduction in tension (%) / EC50: n=8; for EC50: relaxation of tissue precontracted with 10^−6 M norepinephrine
Procedure: Human penile cavernous tissue was obtained fresh from surgery, and representative tissue samples were mounted in smooth muscle tissue baths containing a modified Kreb's solution consisting of NaCl 119 mM, KCl 4.6 mM, MgCl2 1.2 mM, NaH2PO4 1.2 mM, NaHCO3 15 mM, CaCl2 1.5 mM and glucose 11 mM. The solution also contained indomethacin at a final concentration of about 3 μM. The solution was continuously bubbled by 95% O2 and 5% CO2, and the temperature was kept at 37° C.
The tissue preparations were stretched by a force corresponding to 500 mg, and were given a contractile tone by the addition of norepinephrine at a concentration of 10^−6 M. Concentration-response curves were then constructed by adding cumulatively increasing concentrations of the prostaglandin analogues to the bath in a routine way. The relaxant effect was normalized by comparing to that of carbachol in the same preparation.

[3] = test system: rabbit penile blood vessels; assay: Vasodilatory effect on isolated rabbit penile blood vessels precontracted with norepinephrine (myograph); format: cell-based; conditions: FIG. 2; precontracted with 10^−6 M norepinephrine; normalized to papaverine
Procedure: The solution also contained indomethacin at a final concentration of about 3 μM, and was continuously bubbled by 95% O2 and 5%CO2. The temperature was kept constant at 37° C. The vessels were stretched and then precontracted using 10^-6 M norepinephrine, and the vasorelaxant effect of the prostaglandin analogues was normalized by comparing it to that of papaverine in the same preparation. Cumulative concentration-response curves were constructed for the analogues.

cat eyes [4] = assay: Irritant effect in cat eyes (behavioural model, eyelid closure); format: in vivo; conditions: cat eye
rabbits = conditions: Hall and Jaitly, 1977; cited from earlier work
cat eyes [5] = assay: Intraocular pressure in cats by pneumatonometry after topical administration; format: in vivo; conditions: 3 cats, local anaesthesia; before treatment 16.3+/−0.9 mmHg; vehicle eye 16.3 and 15.7 mmHg
Procedure: To confirm that 19R-OH-PGE2-methyl ester, which is more hydrophilic than PGE1-isopropyl ester, indeed penetrates into the cornea and the intraocular parts of the eye we measured the intraocular pressure in 3 cats under local anaesthesia before and 1 hour after topical administration of the prostaglandin to the eye. The intraocular pressure was measured by pneumatonometry. One eye was treated with the test compound and the other eye received the vehicle only. In the eyes treated topically with 19R-OH-PGE2-methyl ester the intraocular pressure decreased from 16.3+/−0.9 mmHg to 12.7+/−1.2 mmHg, whereas it was 16.3+/−0.9 mmHg and 15.7+/−0.7 mmHg in the control eyes at the same time points. It is well known that prostaglandins reduce the intraocular pressure in cats (Bito et al., 1989), and it can thus be taken as an evidence that the drug has penetrated into the eye. […] Thus the absence of pain and irritation after administration of 18RS-OH-PGE2, 19R-OH-PGE2 and 20OH-PGE2 cannot be explained on the basis of increased hydrophilicity and poor bioavailability.

[6] = log P estimated by thin layer chromatography; format: physicochemical; conditions: estimated from thin layer chromatography with PGF2α isopropyl ester as reference
[7] = reference value used for the TLC estimate; cited from earlier work
[8] = 7.5-10 μg/kg intravenous infusion
[9] = 25-35 μg/kg intravenous infusion

Molecule	Reduction (%) of blood pressure (anaesthetized rats; [8]) [%]	Reduction (%) of blood pressure (anaesthetized rats; [9]) [%]	Maximum irritative effect (cat eyes [1]; Dose 1 μg topically on eye)	Maximum irritative effect (cat eyes [1]; Dose 10 μg topically on eye)	Reduction in tension (%) [2] [%]	Maximum irritative effect (cat eyes [1]; Dose 0.1 μg topically on eye)	other results
18RS-OH-PGE2	15 ± 3	32 ± 2	–	–	–	–	–
CCC(O)CC[C@H](O)/C=C/[C@H]1[C@H](O)CC(=O)[C@@H]1C/C=C\CCCC(=O)OC (stereo partly shown) [18RS-OH-PGE2-me, 18RS-Hydroxy PGE2 Methyl Ester]	–	–	0.0 ± 0.0	0.0 ± 0.0	–	–	Maximum irritative effect (cat eyes [1]; Dose 3 μg topically on eye): 0.0 ± 0.0; Maximum irritative effect (cat eyes [1]; Dose 30 μg topically on eye): 0.3 ± 0.2; irritant effect (in words) (cat eyes [1]): no or markedly reduced irritant effect, even at doses 1000 times higher than PGE1-isopropyl ester
C[C@@H](O)CCC[C@H](O)/C=C/[C@H]1[C@H](O)CC(=O)[C@@H]1C/C=C\CCCC(=O)O [19R-OH-PGE2, 19R-hydroxy-prostaglandin E2]	31 ± 3	43 ± 6	–	–	96.9 ± 3.1	–	factor by which concentration-response curves of PGE1 and 19R-OH-PGE2 differ ([2]; FIG. 1, 19R-OH-PGE2 about half to one third as potent as PGE1): 2-3; EC50 [2]: 690 nM; vasodilatory effect (in words) [3]: the same efficacy in inducing vasodilatation and were also about equipotent; irritation by swelling of the ocular structures (in words) (cat eyes [4]): no evidence of such irritation; lid closure and irritant effect in rabbit eye (in words) (rabbits): does not cause lid closure in rabbits but induces an irritant effect by inducing swelling of the ocular structures
COC(=O)CCC/C=C\C[C@H]1C(=O)C[C@@H](O)[C@@H]1/C=C/[C@@H](O)CCC[C@@H](C)O [19R-OH-PGE2-me, 19-R-Hydroxy-prostaglandin E2-Methyl Ester]	–	–	0.1 ± 0.1	0.1 ± 0.1	–	0.0 ± 0.0	Maximum irritative effect (cat eyes [1]; Dose 100 μg topically on eye): 0.7 ± 0.4; irritant effect (in words) (cat eyes [1]): no or markedly reduced irritant effect, even at doses 1000 times higher than PGE1-isopropyl ester; intraocular pressure 1 hour after topical administration (cat eyes [5]): 12.7+/−1.2 mmHg
O=C(O)CCC/C=C\C[C@H]1C(=O)C[C@@H](O)[C@@H]1/C=C/[C@@H](O)CCCCCO [20-OH-PGE2, 20-hydroxy PGE2]	38 ± 3	44 ± 0	–	–	–	–	–
COC(=O)CCC/C=C\C[C@H]1C(=O)C[C@@H](O)[C@@H]1/C=C/[C@@H](O)CCCCCO [20-OH-PGE2-me, 20-OH-Prostaglandin E2-Methyl Ester]	–	–	–	1.2 ± 0.2	–	–	Maximum irritative effect (cat eyes [1]; Dose 3 μg topically on eye): 0.5 ± 0.0; Maximum irritative effect (cat eyes [1]; Dose 30 μg topically on eye): 1.2 ± 04
C[N+](C)(C)CCOC(N)=O [Carbachol, reference compound]	–	–	–	–	100.0 ± 0.0	–	–
CCCCC[C@H](O)/C=C/[C@H]1[C@H](O)CC(=O)[C@@H]1CCCCCCC(=O)O [PGE1, prostaglandin E1, reference compound]	35 ± 5	52 ± 3	1.6 ± 0.2	3.0 ± 0.0	90.9 ± 3.7	0.6 ± 0.1	EC50 ([2]; Homo sapiens): 250 nM; vasodilatory effect (in words) [3]: the same efficacy in inducing vasodilatation and were also about equipotent; chromatographic logP [6]: 0.7
CCCCC[C@H](O)/C=C/[C@H]1[C@H](O)CC(=O)[C@@H]1CCCCCCC(=O)OC(C)C [PGE1-ie, PGE1-isopropyl ester, reference compound]	–	–	–	–	–	1.7 ± 0.3	Maximum irritative effect (cat eyes [1]; Dose 0.01 μg topically on eye): 0.4 ± 0.2; Maximum irritative effect (cat eyes [1]; Dose 0.3 μg topically on eye): 2.8 ± 0.1
CCCCC[C@H](O)/C=C/[C@@H]1[C@@H](C/C=C\CCCC(=O)OC(C)C)[C@@H](O)C[C@H]1O [PGF2α isopropyl ester]	–	–	–	–	–	–	log P of reference [7]: (log P 4.5). ie = isopropyl ester, me = methyl ester.
